Measurements reported in patent US11273152B2, “TRPV2 antagonists” (Instituto de Medicina Molecular João Lobo Antunes, priority 2017, dated 2022).

Key:
[1] = tested on: NCI-60 cancer cell lines; test: NCI-60 Human Tumor Cell Lines Screen; format: cell-based; conditions: Gl50 and IC50 -z scores; five concentrations
Description: Piperlongumine was submitted to the NCI-60 Human Tumor Cell Lines Screen and its activity was measured at five concentration levels (0.01, 0.1, 1, 10 and 100 μM) in 59 NCI-60 cell lines with four dose response parameters (Gl50, IC50, LC50 and TGI). The TRPV2 normalized gene expression (averaged probe intensities combined from five microarray platforms) in NCI-60 cell lines was downloaded from the CellMiner database ^36,37. The Spearman correlation was used to test the interdependence between TRPV2 expression levels and piperlongumine IC50 values against 57 cancer cell lines.

[2] = tested on: Huh-7; test: Wound-healing scratch assay, Huh-7; format: cell-based
[3] = tested on: sperm whale TRPV2 orthologue; test: Isothermal titration calorimetry, sperm whale TRPV2; format: binding; conditions: sperm whale TRPV2 constructs; 100 μM
[4] = molecular target: TRPV5 (Homo sapiens, UniProt Q9NQA5); test: Fluorescence cell-based assay, TRPV5; conditions: calcium 5 dye, duplicate
Chain of TRPV5 (Q9NQA5 whole entry): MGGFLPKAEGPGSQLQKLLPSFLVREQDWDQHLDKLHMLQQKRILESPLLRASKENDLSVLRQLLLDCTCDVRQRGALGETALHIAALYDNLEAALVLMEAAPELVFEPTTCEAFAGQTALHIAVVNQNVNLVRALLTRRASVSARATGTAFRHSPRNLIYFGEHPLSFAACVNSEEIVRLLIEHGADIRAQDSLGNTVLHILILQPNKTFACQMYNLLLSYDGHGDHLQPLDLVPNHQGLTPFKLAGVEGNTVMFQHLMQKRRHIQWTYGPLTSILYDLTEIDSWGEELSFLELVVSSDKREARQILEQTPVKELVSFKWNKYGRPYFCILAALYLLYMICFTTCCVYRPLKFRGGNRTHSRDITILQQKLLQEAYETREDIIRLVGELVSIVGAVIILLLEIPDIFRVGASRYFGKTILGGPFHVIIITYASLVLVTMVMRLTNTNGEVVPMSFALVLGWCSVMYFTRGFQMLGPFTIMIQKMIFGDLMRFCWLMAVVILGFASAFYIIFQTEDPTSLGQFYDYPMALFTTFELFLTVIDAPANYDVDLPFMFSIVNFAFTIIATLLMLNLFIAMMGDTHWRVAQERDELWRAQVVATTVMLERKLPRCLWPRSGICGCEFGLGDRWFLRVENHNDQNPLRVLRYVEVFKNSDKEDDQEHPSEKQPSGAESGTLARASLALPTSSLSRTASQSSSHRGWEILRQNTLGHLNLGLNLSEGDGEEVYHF
Description: (§1) The assays were performed at SB Discovery (Glasgow, UK) on a fee-for-service basis. Human TRP cells were trypsinised, counted and seeded in black, clear-bottomed 96 well plates at a density of 50,000 cells per well in 100 μL volume and incubated overnight. Next day, the cells were loaded with calcium 5 dye or membrane potential dye. TRPV1-5, TRPA1, TRPM2, TRPM3, and TRPM8 were tested using the calcium 5 dye. TRPC1, TRPC3-7, and TRPM4-5 were tested using the membrane potential dye. Both dye solutions were made up in HEPES buffered Hank's balanced salt solution (HBSS). Dye solution (90 μL) was added to the wells and incubated at 37° C. for 1 hour. Test compounds and standard inhibitors (10 μL) were then added to the wells and incubated at room temperature for 10 minutes. The plates were then placed in the flexstation and fluorescence monitored every 1.52 seconds. After 20 seconds agonist was added and the fluorescence monitored for 2 minutes at 485 nm/525 nm and 530 nm/565 nm, Ex/Em, for the calcium 5 dye and the membrane potential dye respectively. Controls-TRPV1: capsazepine; TRPV2: tranilast; TRPV3: ruthenium red; TRPV4: ruthenium red; TRPV5: Gd^3+; TRPA1, ruthenium red; TRPC1: Gd^3+; TRPC3: Pyr3; TRPC4: ML 204; TRPC5: ML 204; TRPC6: ML 204; TRPC7: SKF 96365; TRPM2: 2-APB; TRPM3: Mef acid; TRPM4: clotrimazole; TRPM5: TPPO; TRPM8: 2-APB. […]

[5] = molecular target: TRPC5 (Homo sapiens, UniProt Q9UL62); test: Fluorescence cell-based assay, TRPC5; conditions: membrane potential dye, duplicate
Chain of TRPC5 (Q9UL62 whole entry): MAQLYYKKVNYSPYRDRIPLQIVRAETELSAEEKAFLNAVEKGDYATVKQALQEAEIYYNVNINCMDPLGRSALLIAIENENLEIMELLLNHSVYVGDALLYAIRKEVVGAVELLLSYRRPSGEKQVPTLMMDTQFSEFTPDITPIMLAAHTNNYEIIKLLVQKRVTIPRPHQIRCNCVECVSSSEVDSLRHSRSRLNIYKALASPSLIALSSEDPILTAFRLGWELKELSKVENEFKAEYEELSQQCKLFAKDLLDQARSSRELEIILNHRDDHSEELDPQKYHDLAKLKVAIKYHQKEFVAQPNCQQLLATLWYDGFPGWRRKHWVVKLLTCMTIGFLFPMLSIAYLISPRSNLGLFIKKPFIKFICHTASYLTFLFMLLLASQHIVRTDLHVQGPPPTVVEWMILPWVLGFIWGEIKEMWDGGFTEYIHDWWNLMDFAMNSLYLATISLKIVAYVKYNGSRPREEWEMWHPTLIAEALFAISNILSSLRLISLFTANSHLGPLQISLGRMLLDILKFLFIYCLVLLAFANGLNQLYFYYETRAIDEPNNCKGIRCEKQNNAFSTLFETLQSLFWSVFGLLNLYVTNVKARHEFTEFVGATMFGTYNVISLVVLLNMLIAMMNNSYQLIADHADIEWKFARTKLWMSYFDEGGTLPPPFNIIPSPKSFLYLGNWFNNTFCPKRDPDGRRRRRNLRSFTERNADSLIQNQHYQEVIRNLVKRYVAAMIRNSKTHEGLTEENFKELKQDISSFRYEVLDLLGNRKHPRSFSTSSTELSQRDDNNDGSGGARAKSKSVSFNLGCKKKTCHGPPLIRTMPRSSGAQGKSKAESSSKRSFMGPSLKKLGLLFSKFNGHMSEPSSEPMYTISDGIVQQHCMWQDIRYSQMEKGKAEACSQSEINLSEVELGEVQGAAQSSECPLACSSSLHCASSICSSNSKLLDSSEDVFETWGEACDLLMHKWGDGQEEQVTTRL
Description: as §1

[6] = molecular target: TRPV3 (Homo sapiens, UniProt Q8NET8); test: Fluorescence cell-based assay, TRPV3; conditions: calcium 5 dye, duplicate
Chain of TRPV3 (Q8NET8 whole entry): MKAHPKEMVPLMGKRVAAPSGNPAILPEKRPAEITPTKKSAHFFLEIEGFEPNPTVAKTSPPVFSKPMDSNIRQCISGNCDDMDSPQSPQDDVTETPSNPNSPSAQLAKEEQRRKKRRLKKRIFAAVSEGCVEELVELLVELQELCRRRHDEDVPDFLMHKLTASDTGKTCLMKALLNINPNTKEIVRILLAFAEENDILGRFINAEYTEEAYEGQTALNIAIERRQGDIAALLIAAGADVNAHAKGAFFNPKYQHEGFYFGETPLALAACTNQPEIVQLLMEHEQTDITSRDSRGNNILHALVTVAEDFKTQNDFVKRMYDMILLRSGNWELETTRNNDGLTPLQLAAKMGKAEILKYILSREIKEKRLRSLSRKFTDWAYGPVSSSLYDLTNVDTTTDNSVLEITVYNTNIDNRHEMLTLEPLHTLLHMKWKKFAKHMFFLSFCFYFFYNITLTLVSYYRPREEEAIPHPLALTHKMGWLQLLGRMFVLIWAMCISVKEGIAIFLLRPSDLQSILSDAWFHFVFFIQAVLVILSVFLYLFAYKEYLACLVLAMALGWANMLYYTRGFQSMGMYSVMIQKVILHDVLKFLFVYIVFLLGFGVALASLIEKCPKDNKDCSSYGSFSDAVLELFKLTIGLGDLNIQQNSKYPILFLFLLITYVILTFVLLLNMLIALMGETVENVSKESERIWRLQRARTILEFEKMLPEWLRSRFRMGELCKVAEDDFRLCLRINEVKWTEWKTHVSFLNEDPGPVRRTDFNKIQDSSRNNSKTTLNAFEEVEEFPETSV
Description: as §1

[7] = tested on: U251 cells; test: Toxicity assay (CellTiter-Blue), U251; format: cell-based; conditions: 24, 48 and 72 hours; various concentrations
Description: 5,000 cells/well were seeded in 96 well plates with DMEM containing 2% FBS. The next day piperlongumine was added at various concentrations. […] At 24, 48 and 72 hours the media was removed and replaced with CellTiter-Blue (Promega, 1:20 in media). The plate was incubated for 90 minutes before measuring fluorescence intensity.

[8] = molecular target: TRPM5 (Homo sapiens, UniProt Q9NZQ8); test: Fluorescence cell-based assay, TRPM5; conditions: membrane potential dye, duplicate
Chain of TRPM5 (Q9NZQ8 whole entry): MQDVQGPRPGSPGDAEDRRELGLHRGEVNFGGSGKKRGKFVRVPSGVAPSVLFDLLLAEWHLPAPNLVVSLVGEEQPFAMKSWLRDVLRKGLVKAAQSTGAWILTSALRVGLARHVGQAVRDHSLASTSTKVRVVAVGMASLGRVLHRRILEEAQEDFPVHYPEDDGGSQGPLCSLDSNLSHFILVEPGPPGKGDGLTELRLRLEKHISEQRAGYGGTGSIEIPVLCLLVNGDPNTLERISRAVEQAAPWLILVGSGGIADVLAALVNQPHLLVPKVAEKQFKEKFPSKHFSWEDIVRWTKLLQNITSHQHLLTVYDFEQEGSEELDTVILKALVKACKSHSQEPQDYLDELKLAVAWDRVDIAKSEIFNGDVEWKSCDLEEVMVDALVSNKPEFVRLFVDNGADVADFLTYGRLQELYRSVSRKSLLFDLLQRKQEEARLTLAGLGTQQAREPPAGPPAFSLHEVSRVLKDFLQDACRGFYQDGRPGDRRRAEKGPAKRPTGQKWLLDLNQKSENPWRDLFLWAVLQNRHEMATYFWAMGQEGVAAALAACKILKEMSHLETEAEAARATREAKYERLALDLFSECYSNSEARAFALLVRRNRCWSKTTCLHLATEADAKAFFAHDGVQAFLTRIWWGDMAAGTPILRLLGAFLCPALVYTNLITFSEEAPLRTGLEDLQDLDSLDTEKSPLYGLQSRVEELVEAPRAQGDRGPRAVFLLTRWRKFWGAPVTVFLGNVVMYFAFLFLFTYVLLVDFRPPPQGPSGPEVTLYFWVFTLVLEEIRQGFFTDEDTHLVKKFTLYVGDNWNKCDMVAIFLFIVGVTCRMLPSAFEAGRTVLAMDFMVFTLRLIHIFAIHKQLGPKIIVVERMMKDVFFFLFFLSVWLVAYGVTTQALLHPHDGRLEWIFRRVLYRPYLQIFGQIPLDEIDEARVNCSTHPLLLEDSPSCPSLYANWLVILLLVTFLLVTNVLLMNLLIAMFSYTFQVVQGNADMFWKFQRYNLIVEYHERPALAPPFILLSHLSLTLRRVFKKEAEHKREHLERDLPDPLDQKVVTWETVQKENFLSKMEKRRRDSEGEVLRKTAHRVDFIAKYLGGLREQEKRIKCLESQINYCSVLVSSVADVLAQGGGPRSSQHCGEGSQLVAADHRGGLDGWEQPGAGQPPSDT
Description: as §1

[9] = molecular target: TRPC1 (Homo sapiens, UniProt P48995); test: Fluorescence cell-based assay, TRPC1; conditions: membrane potential dye, duplicate
Description: as §1

[10] = molecular target: TRPM4 (Homo sapiens, UniProt Q8TD43); test: Fluorescence cell-based assay, TRPM4; conditions: membrane potential dye, duplicate
Chain of TRPM4 (Q8TD43 whole entry): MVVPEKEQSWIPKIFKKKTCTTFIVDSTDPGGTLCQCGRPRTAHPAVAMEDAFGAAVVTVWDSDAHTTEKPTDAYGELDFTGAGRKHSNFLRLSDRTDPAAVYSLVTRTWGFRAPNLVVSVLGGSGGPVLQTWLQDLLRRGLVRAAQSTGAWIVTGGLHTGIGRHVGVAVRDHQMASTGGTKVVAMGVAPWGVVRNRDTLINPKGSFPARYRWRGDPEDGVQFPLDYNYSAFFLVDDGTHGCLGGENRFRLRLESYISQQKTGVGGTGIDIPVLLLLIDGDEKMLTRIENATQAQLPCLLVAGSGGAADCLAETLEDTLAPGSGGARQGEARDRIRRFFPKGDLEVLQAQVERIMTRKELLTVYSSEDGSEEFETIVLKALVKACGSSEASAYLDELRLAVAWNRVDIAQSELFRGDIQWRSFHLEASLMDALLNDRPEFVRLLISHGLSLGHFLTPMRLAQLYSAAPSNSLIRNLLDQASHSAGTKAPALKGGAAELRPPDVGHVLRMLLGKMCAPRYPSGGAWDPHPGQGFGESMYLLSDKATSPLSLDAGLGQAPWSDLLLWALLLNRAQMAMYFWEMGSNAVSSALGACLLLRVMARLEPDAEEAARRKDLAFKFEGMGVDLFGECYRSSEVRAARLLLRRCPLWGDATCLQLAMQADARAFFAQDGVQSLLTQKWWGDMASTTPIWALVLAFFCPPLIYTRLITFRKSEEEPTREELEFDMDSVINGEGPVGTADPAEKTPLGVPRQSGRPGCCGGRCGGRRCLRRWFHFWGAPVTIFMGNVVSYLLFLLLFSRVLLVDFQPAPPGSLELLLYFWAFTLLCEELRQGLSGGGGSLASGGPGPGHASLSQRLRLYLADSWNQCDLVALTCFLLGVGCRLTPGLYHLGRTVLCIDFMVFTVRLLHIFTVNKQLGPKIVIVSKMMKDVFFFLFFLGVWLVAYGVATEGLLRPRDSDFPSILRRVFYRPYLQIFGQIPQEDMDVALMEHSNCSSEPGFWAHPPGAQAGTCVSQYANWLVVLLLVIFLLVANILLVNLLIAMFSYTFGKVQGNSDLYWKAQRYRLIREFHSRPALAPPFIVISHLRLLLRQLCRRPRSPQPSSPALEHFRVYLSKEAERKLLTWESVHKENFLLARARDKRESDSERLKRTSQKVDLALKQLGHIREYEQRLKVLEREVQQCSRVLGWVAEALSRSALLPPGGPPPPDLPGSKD
Description: as §1

## COc1cc(/C=C/C(=O)N2CCC=CC2=O)cc(OC)c1OC [Compound 1, piperlongumine]
[1]
  Anti-proliferative activity across NCI-60, most sensitive tissues: blood, colon and skin cancer cell lines were found to be the most sensitive
[2]
  Cell migration, wound healing: reproducible
[3]
  Binding by isothermal titration calorimetry: did not bind
[4]
  IC50: > 100 µM
[5]
  IC50: > 100 µM
[6]
  IC50: > 100 µM
[7]
  Sensitivity of U251 cells: sensitive to PL in a dose- and time-dependent manner
[8]
  IC50: > 100 µM
[9]
  IC50: > 100 µM
[10]
  IC50: > 100 µM
